Test results: paper PMC2774621, “Homogenous Fluorescent Assays for Characterizing Small-Molecule Activators of AMP-Activated Protein Kinase (AMPK)” (Current Chemical Genomics, 2008)

Tests used:
[1] = system: partially purified rat AMPK; set-up: method as in PMID 8185610; details: cited from earlier work
AMPK α1β1γ1 [2] = molecular target: T1, AMPK α1β1γ1 (Homo sapiens, UniProt P54619+Q13131); assay: Radiometric kinase assay (SAMS peptide, 32P-ATP); type: biochemical; details: ATP 35 µM, SAMS 200 µM
T1 construct: made in house; host or cells: Sf9 insect cells (baculovirus)
T1 sequence (Q13131 whole entry): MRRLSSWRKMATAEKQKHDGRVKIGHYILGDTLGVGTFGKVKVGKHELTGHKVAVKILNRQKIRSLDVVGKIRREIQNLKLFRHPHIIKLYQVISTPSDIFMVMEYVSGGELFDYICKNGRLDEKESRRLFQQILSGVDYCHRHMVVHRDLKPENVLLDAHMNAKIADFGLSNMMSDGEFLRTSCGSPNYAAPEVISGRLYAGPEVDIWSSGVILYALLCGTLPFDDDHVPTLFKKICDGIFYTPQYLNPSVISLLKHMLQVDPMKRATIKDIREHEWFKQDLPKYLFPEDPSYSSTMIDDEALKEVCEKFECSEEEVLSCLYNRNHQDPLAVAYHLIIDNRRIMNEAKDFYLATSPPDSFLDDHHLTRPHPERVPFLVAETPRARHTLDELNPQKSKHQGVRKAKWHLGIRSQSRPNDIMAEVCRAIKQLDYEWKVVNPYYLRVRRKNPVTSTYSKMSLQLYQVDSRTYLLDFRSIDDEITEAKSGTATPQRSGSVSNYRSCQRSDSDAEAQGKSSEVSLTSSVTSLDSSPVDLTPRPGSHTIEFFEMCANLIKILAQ
T1 sequence (Q9Y478 whole entry partner): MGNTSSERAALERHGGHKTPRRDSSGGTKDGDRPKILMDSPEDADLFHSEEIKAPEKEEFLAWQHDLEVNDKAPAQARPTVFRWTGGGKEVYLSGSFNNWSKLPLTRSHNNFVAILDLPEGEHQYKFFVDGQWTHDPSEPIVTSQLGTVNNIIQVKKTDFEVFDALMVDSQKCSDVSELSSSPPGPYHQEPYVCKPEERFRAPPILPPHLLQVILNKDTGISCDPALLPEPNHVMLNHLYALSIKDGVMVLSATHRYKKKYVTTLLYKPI
T1 sequence (P54619 whole entry): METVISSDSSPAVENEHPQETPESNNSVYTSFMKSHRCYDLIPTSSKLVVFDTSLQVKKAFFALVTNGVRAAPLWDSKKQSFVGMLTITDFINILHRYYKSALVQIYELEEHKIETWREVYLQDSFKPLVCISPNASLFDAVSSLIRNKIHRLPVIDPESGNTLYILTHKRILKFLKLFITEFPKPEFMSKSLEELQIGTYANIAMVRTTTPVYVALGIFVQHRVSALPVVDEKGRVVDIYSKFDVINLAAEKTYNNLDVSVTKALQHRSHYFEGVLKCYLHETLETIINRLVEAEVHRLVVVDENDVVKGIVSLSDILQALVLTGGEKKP

AMPK α1β1γ1 [3] = molecular target: T1, AMPK α1β1γ1; assay: FRET-based kinase activity assay (Z'-LYTE S/T23 peptide); type: biochemical; details: ATP 50 µM, substrate 2 µM
Protocol: Kinase reactions were performed in a 10 µL assay volume at room temperature in 384-well low volume plates (Corning model 3676) using the same assay buffer as the radiometric assay. Inhibitors and activators were prepared as described for the radiometric assays. Assays were performed as follows: 2.5 µL of the inhibitor or activator working stock was added to a 5 µL solution of kinase and substrate, followed by 2.5 µL of ATP to start the assay. All assays were performed in quadruplicate. The final concentration of Z’-LYTE™ S/T23 peptide substrate in the reaction was 2 µM. AMPK α1β1γ1 was used at 79 ng/mL (0.42 nM) in the inhibition experiments and 41 ng/mL (0.22 nM) in the activation experiments, at an ATP concentration of 50 µM. AMPK α2β1γ1 was used at 177 ng/mL (0.92 nM) in the inhibition experiments and 41 ng/mL (0.22 nM) in the activation experiments, at an ATP concentration of 150 µM. After one hour, 5 µL of protease solution was added to a final well volume of 15 µL. After a 1 hour incubation at room temperature the assay plate was read on a Tecan Safire plate reader using an excitation wavelength of 400 nm (12 nm bandpass), and emission wavelengths of 445 nm (12 nm bandpass) and 520 nm (12 nm bandpass). The FRET ratio was calculated as the intensity of the donor signal divided by the intensity of the acceptor signal. The extent of substrate phosphorylation was calculated from the FRET ratio as described previously.
Data analysis and curve-fitting was performed using GraphPad Prism software (GraphPad Software, Inc, San Diego CA).

rat liver AMPK = details: rat liver AMPK; cited from earlier work

Structure (SMILES) | fold stimulation (maximal extent of activation) ([1]; partially purified rat AMPK) | concentration above which activity is inhibited ([1]; rat AMPK) | EC50 ([1]; rat AMPK, read-out: half-maximal stimulatory concentration) | Max. fold-activation (AMPK α1β1γ1 [2]) | EC50 (AMPK α1β1γ1 [2]; read-out: Activator EC50) | Max. fold-activation (AMPK α1β1γ1 [3]) | EC50 (AMPK α1β1γ1 [3]; read-out: Activator EC50) | IC50 (rat liver AMPK)
Nc1ncnc2c1ncn2[C@@H]1O[C@H](COP(O)(O)=S)[C@@H](O)[C@H]1O [ATMP, adenosine 5′-O-thiomonophosphate] | 3 fold | above 25 µM | 650 nM | 1.7 fold | 700 nM | 3.3 fold | 350 nM | –
c1cc(-c2cnn3cc(-c4ccc(OCCN5CCCCC5)cc4)cnc23)ccn1 [Cpd C] | – | – | – | – | – | – | – | 109 nM
